Measured values reported in ChEMBL document CHEMBL1133064, “1-[2-[(Heteroaryloxy)heteroaryl]carbamoyl]indolines: novel and selective 5-HT2C receptor inverse agonists with potential as antidepressant/anxiolytic agents” (Bioorg Med Chem Lett, 2000).

How the values were obtained:
[1] = target: 5-hydroxytryptamine receptor 2B (Homo sapiens, UniProt P41595); assay: Binding affinity towards human cloned 5-HT2B receptor of HEK293 cells by displacement of [3H]5-HT; assay type: cell-based
[2] = target: T1, 5-hydroxytryptamine receptor 2C (Homo sapiens, UniProt P28335); assay: Binding affinity towards human cloned 5-hydroxytryptamine 2C receptor of HEK293 cells by displacement of [3H]mesulergine; assay type: cell-based
T1 sequence (P28335 whole entry): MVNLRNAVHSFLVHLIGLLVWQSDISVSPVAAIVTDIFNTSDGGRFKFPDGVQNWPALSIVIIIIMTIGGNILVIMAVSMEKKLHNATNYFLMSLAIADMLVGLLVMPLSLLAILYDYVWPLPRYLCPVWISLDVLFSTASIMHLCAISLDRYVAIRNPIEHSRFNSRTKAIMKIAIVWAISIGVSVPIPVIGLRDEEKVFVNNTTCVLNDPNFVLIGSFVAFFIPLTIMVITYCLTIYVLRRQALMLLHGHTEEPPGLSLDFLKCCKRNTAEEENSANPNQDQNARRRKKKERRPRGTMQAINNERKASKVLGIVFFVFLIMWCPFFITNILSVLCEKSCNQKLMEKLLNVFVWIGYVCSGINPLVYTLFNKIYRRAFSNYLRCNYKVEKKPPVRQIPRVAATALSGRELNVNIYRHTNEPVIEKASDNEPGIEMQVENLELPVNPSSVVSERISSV

[3] = target: 5-hydroxytryptamine receptor 2A (Homo sapiens, UniProt P28223); assay: Binding affinity towards human cloned 5-hydroxytryptamine 2A receptor of HEK293 cells by displacement of [3H]ketanserin; assay type: cell-based
[4] = system: Rattus norvegicus; assay: Dose required to reverse mCPP induced hypolocomotion by 50% at 7 mg/kg, ip administration 30 min pretest; assay type: functional; settings: 0.5 h, route intraperitoneal, read-out: ID50 (the source's name)
[5] = target: Serotonin receptor (2b and 2c) (Homo sapiens) (UniProt P41595+P28335); assay: Selectivity expressed as ratio of serotonin 5-HT2C receptor over serotonin 5-HT2B receptor; assay type: protein assay
[6] = target: Serotonin 2 receptors; 5-HT2a & 5-HT2c (Homo sapiens) (UniProt P28223+P28335); assay: Selectivity expressed as ratio of serotonin 5-HT2C receptor over serotonin 5-HT2A receptor; assay type: protein assay
[7] = system: Rattus norvegicus; assay: Percent reversal of mCPP induced hypolocomotion after peroral administration at 5 mg/kg in rat; assay type: functional; settings: route oral

Chain of Serotonin 2 receptors; 5-HT2a & 5-HT2c (Homo sapiens) (P28223 whole entry, looked up, one chain of several): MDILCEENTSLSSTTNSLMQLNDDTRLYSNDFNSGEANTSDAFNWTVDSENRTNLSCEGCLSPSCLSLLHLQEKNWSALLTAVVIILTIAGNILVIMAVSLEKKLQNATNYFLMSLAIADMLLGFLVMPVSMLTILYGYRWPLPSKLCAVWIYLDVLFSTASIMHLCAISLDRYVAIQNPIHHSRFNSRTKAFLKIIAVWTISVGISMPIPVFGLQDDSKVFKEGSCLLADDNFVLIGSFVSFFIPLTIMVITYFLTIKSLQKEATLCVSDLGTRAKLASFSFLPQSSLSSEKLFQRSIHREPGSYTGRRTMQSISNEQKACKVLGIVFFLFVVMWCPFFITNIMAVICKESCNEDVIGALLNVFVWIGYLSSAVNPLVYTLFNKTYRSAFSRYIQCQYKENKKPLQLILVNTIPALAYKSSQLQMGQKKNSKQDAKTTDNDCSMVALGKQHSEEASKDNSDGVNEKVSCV
Chain of 5-hydroxytryptamine receptor 2A (P28223 whole entry): as the sequence (P28223 whole entry, looked up, one chain of several) above
Chain of 5-hydroxytryptamine receptor 2B (P41595 whole entry): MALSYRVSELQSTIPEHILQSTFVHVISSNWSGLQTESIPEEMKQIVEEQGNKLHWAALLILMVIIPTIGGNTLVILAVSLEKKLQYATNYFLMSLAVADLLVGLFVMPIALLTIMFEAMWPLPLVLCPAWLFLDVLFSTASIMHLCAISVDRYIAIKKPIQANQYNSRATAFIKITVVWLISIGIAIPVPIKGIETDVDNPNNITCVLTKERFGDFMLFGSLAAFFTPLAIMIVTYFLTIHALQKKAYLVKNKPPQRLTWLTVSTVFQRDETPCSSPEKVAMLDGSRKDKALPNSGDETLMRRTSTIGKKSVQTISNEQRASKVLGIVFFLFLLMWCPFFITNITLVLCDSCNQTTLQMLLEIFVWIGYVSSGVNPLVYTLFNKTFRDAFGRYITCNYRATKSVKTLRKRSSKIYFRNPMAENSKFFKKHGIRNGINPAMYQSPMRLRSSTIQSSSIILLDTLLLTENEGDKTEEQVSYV

| Structure (SMILES) | Ki [1] [µM] | Ki [2] [µM] | Ki [3] [µM] | ED50 [4] [mg/kg] | Selectivity [5] | Selectivity [6] | Reversal [7] [%] |
| --- | --- | --- | --- | --- | --- | --- | --- |
| Cc1cc2c(cc1C(F)(F)F)N(C(=O)Nc1cnc(Oc3cccnc3C)cn1)CC2 | 0.0794 | 0.002 | 0.631 | 3.6 | 40 | 320 |  |
| Cc1cc2c(cc1C(F)(F)F)N(C(=O)Nc1cnc(Oc3cccnc3C)c(Cl)c1)CC2 | 0.0398 | 0.00158 | 0.251 | > 5 | 25 | 160 |  |
| Cc1ncccc1Oc1ccc(NC(=O)N2CCc3ccc(C(F)(F)F)cc32)cn1 | 0.398 | 0.00501 | 0.158 |  | 80 | 30 |  |
| COc1cc2c(cc1C(F)(F)F)N(C(=O)Nc1ccc(Oc3cccnc3C)nc1)CC2 |  |  |  |  | 80 | 1300 |  |
| Cc1cc2c(cc1Cl)N(C(=O)Nc1ccc(Oc3cccnc3Cl)nc1)CC2 | 0.0501 | 0.00126 | 0.1 | 4.5 | 40 | 80 |  |
| Cc1ncccc1Oc1ccc(NC(=O)N2CCc3cc(Cl)ccc32)cn1 | 2 | 0.00631 | > 10 |  | 320 | > 1600 | 40 |
| CSc1cc2c(cc1C(F)(F)F)N(C(=O)Nc1ccc(Oc3cccnc3C)nc1)CC2 | 0.0398 | 0.000398 | 0.251 |  | 100 | 630 | 31 |
| Cc1ncccc1Oc1ccc(NC(=O)N2CCc3ccccc32)cn1 | 2 | 0.1 | > 10 |  | 20 | > 100 |  |
| Cc1cc2c(cc1C(F)(F)F)N(C(=O)Nc1ccc(Oc3cccnc3C)nn1)CC2 | 0.126 | 0.00316 | 0.398 | 1.2 | 40 | 130 |  |
| Cc1cc2c(cc1C(F)(F)F)N(C(=O)Nc1ccc(Oc3cncnc3C)nc1)CC2 | 0.0126 | 0.002 | 0.0794 |  | 6 | 40 |  |
| Cc1cc2c(cc1C(F)(F)F)N(C(=O)Nc1ccc(Oc3cccnc3C)nc1)CC2 [SB-243213] |  |  |  | 1 | 100 | 160 |  |
| Cc1ncccc1Oc1ccc(NC(=O)N2CCc3cc(I)ccc32)cn1 | 0.316 | 0.00316 | 1.58 |  | 100 | 500 | 14 |
| Cc1ncccc1Oc1ccc(NC(=O)N2CCc3cc(F)ccc32)cn1 | 5.01 | 0.0398 | > 10 |  | 130 | > 250 | 4 |
| Cc1ncccc1Oc1ccc(NC(=O)N2CCc3c(Cl)cccc32)cn1 | 2.51 | 0.0158 | > 10 |  | 160 | > 630 | 6 |
| Cc1ncccc1Oc1ccc(NC(=O)N2CCc3c2cc(C(F)(F)F)c2c3CCO2)cn1 | 0.0631 | 0.00126 | 0.501 | 9 | 50 | 400 |  |
| Cc1cc2c(cc1Cl)N(C(=O)Nc1ccc(Oc3cccnc3C)nn1)CC2 | 0.158 | 0.002 | 1.58 | 1.6 | 80 | 800 |  |
| Cc1ncccc1Oc1ccc(NC(=O)N2CCc3cc(Br)ccc32)cn1 | 0.631 | 0.00316 | > 3.98 |  | 200 | > 1300 | 10 |
| Cc1cc2c(cc1Cl)N(C(=O)Nc1ccc(Oc3cccnc3C)nc1)CC2 |  |  |  |  | 100 | 160 |  |
| Cc1ncccc1Oc1ccc(NC(=O)N2CCc3c2ccc(Cl)c3Cl)cn1 | 0.501 | 0.00316 | 3.16 |  | 160 | 1000 | 4 |
| Cc1cc2c(cc1F)N(C(=O)Nc1ccc(Oc3cccnc3C)nc1)CC2 | 0.158 | 0.00158 | 0.794 |  | 100 | 500 | 46 |
| Cc1cc2c(cc1Cl)N(C(=O)Nc1ccc(Oc3cnccc3C)nc1)CC2 | 0.0316 | 0.001 | 0.00794 |  | 30 | 8 |  |

| Structure (SMILES) | Ki [1] [µM] | Ki [2] [µM] | Ki [3] [µM] | ED50 [4] [mg/kg] | Selectivity [5] | Selectivity [6] | Reversal [7] [%] |
| --- | --- | --- | --- | --- | --- | --- | --- |
| Cc1ncccc1Oc1ccc(NC(=O)N2CCc3cc(Cl)c(Cl)cc32)cn1 | 0.316 | 0.002 | 0.251 |  | 160 | 130 | 32 |
| Cc1cc2c(cc1Cl)N(C(=O)Nc1ccc(Oc3cnccc3Cl)nc1)CC2 | 0.0126 | 0.000501 | 0.0158 |  | 25 | 30 |  |
| Cc1ncccc1Oc1ccc(NC(=O)N2CCc3c(Br)cccc32)cn1 | > 2 | 0.0158 | > 6.31 |  | > 130 | > 400 | 3 |
| Cc1cc2c(cc1Cl)N(C(=O)Nc1ccc(Oc3cccnc3C(C)C)nc1)CC2 | 0.2 | 0.126 | 0.794 |  | 2 | 6 |  |
| Cc1ncccc1Oc1ccc(NC(=O)N2CCc3c2cc(Cl)c(C)c3Cl)cn1 | 0.0398 | 0.001 | 0.0631 |  | 40 | 60 | 85 |
| Cc1cc2c(cc1Cl)N(C(=O)Nc1cnc(Oc3cccnc3C)c(Cl)c1)CC2 | 0.02 | 0.000631 | 0.126 | > 5 | 30 | 200 |  |
| Cc1cc2c(cc1Cl)N(C(=O)Nc1cnc(Oc3cccnc3C)nc1)CC2 | 0.0631 | 0.00316 | > 0.631 | 3.7 | 20 | > 200 |  |
| Cc1ncccc1Oc1ccc(NC(=O)N2CCc3c2cccc3C(F)(F)F)cn1 | > 10 | 0.2 | > 10 |  | > 50 | > 50 |  |
| Cc1ncccc1Oc1ccc(NC(=O)N2CCc3cc(Br)c(C(F)(F)F)cc32)cn1 | 0.1 | 0.00126 | 0.126 | 2 | 80 | 100 |  |
| COc1cc2c(cc1C(F)(F)F)N(C(=O)Nc1cnc(Oc3cccnc3C)cc1C)CC2 | 0.251 | 0.2 | 0.631 |  | 1.3 | 3 |  |
| Cc1ncccc1Oc1ccc(NC(=O)N2CCc3cc(F)c(Cl)cc32)cn1 | 0.631 | 0.00631 | 0.501 |  | 100 | 80 | 16 |
| Cc1cc2c(cc1Br)N(C(=O)Nc1ccc(Oc3cccnc3C)nc1)CC2 | 0.0631 | 0.000794 | 0.158 |  | 80 | 200 | 49 |
| CCc1cc2c(cc1C(F)(F)F)N(C(=O)Nc1ccc(Oc3cccnc3C)nc1)CC2 | 0.126 | 0.00251 | 0.501 |  | 50 | 200 | 12 |
| Cc1cc2c(cc1Cl)CCN2C(=O)Nc1ccc(Oc2cccnc2C)nc1 | 0.126 | 0.00126 | 0.158 |  | 100 | 130 | 7.3 |
| Cc1ncccc1Oc1ccc(NC(=O)N2CCc3ccc(Cl)cc32)cn1 | 0.794 | 0.00398 | 0.316 |  | 200 | 80 | 3 |
| Cc1cc2c(cc1Cl)N(C(=O)Nc1cnc(Oc3cccnc3C)c(C)c1)CC2 | 0.0316 | 0.00158 | 0.126 | 0.8 | 20 | 80 |  |
| Cc1ccc2c(c1Br)CCN2C(=O)Nc1ccc(Oc2cccnc2C)nc1 | 0.251 | 0.00158 | > 1 |  | 160 | > 630 | 0 |
| Cc1ncccc1Oc1ccc(NC(=O)N2CCc3cc(C(F)(F)F)ccc32)cn1 | 0.631 | 0.00398 | 2.51 | 2.1 | 160 | 630 |  |
| CCCc1ncccc1Oc1ccc(NC(=O)N2CCc3cc(C)c(Cl)cc32)cn1 | 0.1 | 0.00158 | 0.158 |  | 60 | 100 | 18 |
| CCc1ncccc1Oc1ccc(NC(=O)N2CCc3cc(C)c(Cl)cc32)cn1 | 0.0501 | 0.002 | 0.2 | 1.8 | 25 | 100 |  |
